Structures can show the parent of a compound that is named as a salt.
Experiments:
DDR1 = target: T1, DDR1 (Homo sapiens, UniProt Q08345); assay: Measurement of DDR1 inhibitory activity (LanthaScreen system, in vitro test); format: binding; conditions: GST-DDR1, Kinase tracer 178
T1 construct: purchased Invitrogen
Method: Biological Experiment Example 1: Measurement of an DDR1 Inhibitory Activity (In Vitro Test)
An DDR1 enzyme inhibitory activity was measured by using LanthaScreen (registered trademark) system (Invitrogen) based on the attached instruction. The reagents used are shown below.
Assay buffer: 5× Kinase buffer A (Invitrogen) was diluted 5-fold with ddH2O.
1× Kinase Buffer A: 50 mmol/L HEPES pH 7.5, 10 mmol/L MgCl2, 1 mmol/L EGTA, 0.01% Brij-35.
2×DDR1 Solution: a solution containing […] GST-DDR1 (Invitrogen) was prepared by using Assay buffer.
2× Tracer/antibody solution: a solution containing 20 nmol/L Kinase tracer 178 (Invitorgen) and […] Eu-Anti-GST Antibody (Invitorogen) was prepared by using Assay buffer. Test compound solution: a solution containing a test compound of 2-fold concentration with respect to the final concentration was prepared by 50-fold diluting a DMSO solution of test compound of each concentration with the Assay buffer.
• 1 Add 5 μL 2×DDR1 Solution to proxiplate (PerkinElmer) • 2 Add 5 μL test compound solution to proxiplate • 3 Incubate for 15 min at RT • 4 Add 5 μL 2× Tracer/Antibody solution to all well Incubate 1 h at RT • 6 Read LANCE Eu on Envision (PerkinElmer) (Ex: 320 nm/Em 665 nm & 615 nm)
In the low control group, 5 μL Assay buffer was added instead of 5 μL 2×DDR1 Solution and the final 1% DMSO solution was added instead of test compound solution.
In the high control group, the final 1% DMSO solution was added instead of test compound solution.
(§1) The inhibition rate (%) in the test compound group was calculated based on the following mathematical formula.
% inhibition=100−100*(assay value of test compound−A)/(B−A) [Math. 1]
A: average value of low control group B: average value of high control group
Values of 50% inhibition rate (IC50 values) of the test compound were calculated from the inhibition curve based on the inhibition rate of the test compounds in each concentration.

[1] = target: T2, DDR1 phosphorylation in T-47D (ATCC, HTB-133) cells (Homo sapiens, UniProt Q08345); assay: Measurement of DDR1 phosphorylation suppression rate by using T-47D cells (p-DDR1 ELISA); format: cell-based; conditions: collagen Type I 10 μg/ml, p-DDR1 (panTyr) ELISA
T2 construct: host or cells: T-47D
T2 sequence (Q08345 19-913): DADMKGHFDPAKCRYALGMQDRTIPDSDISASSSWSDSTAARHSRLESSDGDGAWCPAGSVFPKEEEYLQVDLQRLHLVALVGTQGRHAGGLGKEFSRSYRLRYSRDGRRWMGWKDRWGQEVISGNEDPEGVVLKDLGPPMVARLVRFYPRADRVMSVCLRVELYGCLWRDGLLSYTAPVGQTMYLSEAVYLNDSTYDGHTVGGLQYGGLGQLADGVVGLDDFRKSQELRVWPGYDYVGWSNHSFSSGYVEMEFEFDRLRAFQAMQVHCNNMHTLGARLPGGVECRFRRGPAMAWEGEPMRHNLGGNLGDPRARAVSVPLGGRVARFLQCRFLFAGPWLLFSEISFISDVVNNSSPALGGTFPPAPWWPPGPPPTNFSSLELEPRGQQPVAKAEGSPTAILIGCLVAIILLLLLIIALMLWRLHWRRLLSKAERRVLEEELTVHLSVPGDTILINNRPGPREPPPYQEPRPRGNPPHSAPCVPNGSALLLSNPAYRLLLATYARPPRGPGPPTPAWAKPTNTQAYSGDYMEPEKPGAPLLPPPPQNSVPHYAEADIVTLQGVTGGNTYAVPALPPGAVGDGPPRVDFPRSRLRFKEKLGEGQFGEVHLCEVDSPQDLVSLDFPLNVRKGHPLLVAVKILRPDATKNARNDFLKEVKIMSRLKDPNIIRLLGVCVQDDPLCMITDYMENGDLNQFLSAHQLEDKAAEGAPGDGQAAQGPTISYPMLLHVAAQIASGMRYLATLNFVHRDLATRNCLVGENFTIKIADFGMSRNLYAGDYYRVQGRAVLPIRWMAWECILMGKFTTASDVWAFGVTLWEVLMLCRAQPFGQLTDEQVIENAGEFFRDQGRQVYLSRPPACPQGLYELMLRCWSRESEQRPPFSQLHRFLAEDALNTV
Method: Biological Example 2: Measurement of DDR1 Phosphorylation Suppression Rate by Using T-47D (ATCC, HTB-133) cells
T-47D cells should be in culture for at least 7 days before using in the assay.
Cell culture medium: RPMI 1640 (HyClone) containing 10% Heat-FBS (HyClone) was prepared.
Assay medium: RPMI 1640 containing 0.1% BSA (solarbio) was prepared.
Collagen Type I (rat tail) solution: Assay medium containing 200 μg/mL Collagen I, rat tail (Gibco) was prepared.
Cell lysis buffer: a solution containing IX cell lysis buffer (CST) and 1× protease and phosphatase inhibitor cocktail (Thermofisher) was prepared by using ddH2O.
• 1. Collect cells into tubes and centrifuge at 1200 rpm for 5 min, at room temperature. Re-suspend the cells in cell culture medium pre-warmed to room temperature. • 2. Count cells and suspend at a density of 2×10^5/ml of cell culture medium. Plate the cells at 100 μL per well (Corning 3599 96-well plate, 2×10^4 cells per well final), mixing the cells well between each draw of the pipettor. • 3. Put lid on cell plate and place into the incubator at 37° C., 5% CO2 • 4. Culture cell overnight
• 1. Remove the plate from the incubator • 2. Cell medium is replaced with the 90 μL Assay medium.
• 1. Compound plates are pre-titrated using DMSO (10-fold dilution for 6 points) • 2. Dilute test compound using assay medium; Transfer 1 μL compound to other 96 well plate and then add 49 μL assay medium to each well (50 fold dilution). • 3. Add 5 μL the diluted test compound solution to the appropriate wells by pipettor. Compound final concentration is start from […] and DMSO final concentration is 0.1 • 4. Tap the plates gently to mix in compound. Reseal the plate with a lid and place in the incubator again, for 24 h.
• 1. Diluted collagen Type I in assay medium to the 200 μg/ml concentration • 2. Using the pipettor adds 5 μL of 200 μg/mL collagen Type I solution to the cell plate (compound well and High control well, collagen final conc. is 10 μg/ml). Add assay medium buffer to the control wells (low control well) • 3. Reseal the plate with a lid and place in the incubator. Incubate 24 h for collagen type I
• 1. After incubation, add 100 µL per well Cell lysis buffer. • 2. Incubate 30 min on ice, then freezing to −80° C. to get the fully cell lysates. • 3. Transfer cell lysates to new plate • 4. Centrifuge for 30 min (×4000 rpm) at 4° C. Then transfer the supernatant to a new plate.
p-DDR1 (panTyr) ELISA kit (CST) was used in the study. The measurement was carried out according to the attached instruction.
as §1
% inhibition=100−100*(assay value of test compound−A)/(B−A) [Math. 2]
A: average value of low control group B: average value of high control group Values of 50% inhibition rate (IC50 values) of the test compound were calculated from the inhibition curve based on the inhibition rate of the test compounds in each concentration.

T1 sequence (Q08345 19-913): as above

Row | SMILES | IC50 (DDR1) [nM] | IC50 [1] [nM]
1 | O=C1CN(c2cncc(C(F)(F)F)c2)C(=O)N1[C@H]1CC[C@H](Oc2ncnc3[nH]ccc23)CC1 (stereo in doubt) [Example 3(17), 3-[trans-4-(7H-pyrrolo[2,3-d]pyrimidin-4-yloxy)cyclohexyl]-1-[5-(trifluoromethyl)-3-pyridinyl]-2,4-imidazolidinedione] | 5 | 9
2 | CS(=O)(=O)c1cc(N2CC(=O)N(c3ccc(Oc4cnc5[nH]ncc5c4)cc3)C2=O)cc(C(F)(F)F)c1 [Example 1(28), 1-[3-(methylsulfonyl)-5-(trifluoromethyl)phenyl]-3-[4-(1H-pyrazolo[3,4-b]pyridin-5-yloxy)phenyl]-2,4-imidazolidinedione] | 2 | 2
3 | Nc1ncc(Oc2ccc(N3C(=O)CN(c4cncc(C(F)(F)F)c4)C3=O)cc2)cn1 [Example 1, 3-{4-[(2-amino-5-primidinyl)oxy]phenyl}-1-[5-(trifluoromethyl)-3-pyridinyl]-2,4-imidazolidinedione] | 3 | 2
4 | COc1cc2nccc(Oc3ccc(N4C(=O)CN(c5cncc(C(F)(F)F)c5)C4=O)cc3C3CN(C(=O)OC(C)(C)C)C3)c2cc1OC [Example 2(2), 2-methyl-2-propanyl 3-(2-[(6,7-dimethoxy-4-quinolinyl)oxy]-5-{2,5-dioxo-3-[5-(trifluoromethyl)-3-pyridinyl]-1-imidazolidinyl}phenyl)-1-azetidinecarboxylate] | 200 | 50
5 | CC(C)c1cc(N2C(=O)CN(c3cc(C(F)(F)F)cn(C)c3=O)C2=O)ccc1Oc1ccnc2cc(OCCCS(C)(=O)=O)ccc12 [Example 2(6), 3-[3-isopropyl-4-({7-[3-(methylsulfonyl)propoxy]-4-quinolinyl}oxy)phenyl]-1-[1-methyl-2-oxo-5-(trifluoromethyl)-1,2-dihydro-3-pyridinyl]-2,4-imidazolidinedione] | 10 | 6
6 | COc1ccc2c(O[C@H]3CC[C@H](N4C(=O)CN(c5cncc(C(F)(F)F)c5)C4=O)CC3)ncnc2c1 [Example 2(19), 3-{trans-4-[(7-methoxy-4-quinazolinyl)oxy]cyclohexyl}-1-[5-(trifluoromethyl)-3-pyridinyl]-2,4-imidazolidinedione] | 3 | 1
7 | O=C1CN(c2cc(F)cc(C(F)(F)F)c2)C(=O)N1[C@H]1CC[C@H](Oc2cnc3ccsc3c2)CC1 [Example 2(125), 1-[3-fluoro-5-(trifluoromethyl)phenyl]-3-[trans-4-(thieno[3,2-b]pvridin-6-yloxy)cyclohexyl]-2,4-imidazolidinedione] | 20 | 5
8 | Nc1nccc(Nc2ccc(N3C(=O)CN(c4cccc(OC(F)(F)F)c4)C3=O)cc2Br)c1N [Example 2(163), 3-{3-bromo-4-[(2,3-diamino-4-pyridinyl)amino]phenyl}-1-[3-(trifluoromethoxy)phenyl]-2,4-imidazolidinedione] | – | 6
9 | CCc1cc(N2C(=O)N(c3cncc(C(F)(F)F)c3)CC2O)ccc1Oc1ccnc2[nH]c(=O)cnc12 (centres unmarked) [Example 5(46), 8-(2-ethyl-4-{5-hydroxy-2-oxo-3-[5-(trifluoromethyl)-3-pyridinyl]-1-imidazolidinyl}phenoxy)pyrido[2,3-b]pyrazin-3(4H)-one] | 2 | –
10 | C=Cc1cc(N2C(=O)CN(c3cncc(C(F)(F)F)c3)C2=O)ccc1N1CCCc2cnccc21 [Example 8(1), 3-[4-(3,4-dihydro-1,6-naphthyridin-1(2H)-yl)-3-vinylphenyl]-1-[5-(trifluoromethyl)-3-pyridinyl]-2,4-imidazolidinedione] | 80 | –
11 | O=C1CN(c2cncc(C(F)(F)F)c2)C(=O)N1c1ccc(N2CCCc3cnccc32)c(Br)c1 [Example 8, 3-[3-bromo-4-(3,4-dihydro-1,6-naphthyridin-1(2H)-yl)phenyl]-1-[5-(trifluoromethyl)-3-pyridinyl]-2,4-imidazolidinedione] | – | 70

Other lines, results leading:

Row | IC50 (DDR1) [nM] | IC50 [1] [nM] | SMILES
12 | – | 10 | CC(c1ccnc2[nH]ccc12)N1CCC(N2C(=O)CN(c3cncc(C(F)(F)F)c3)C2=O)CC1 (centres unmarked) [Example 10(1), 3-{1-[1-(1H-pyrrolo[2,3-b]pyridin-4-yl)ethyl]-4-piperidinyl}-1-[5-(trifluoromethyl)-3-pyridinyl]-2,4-imidazolidinedione]
13 | 60 | – | COc1ccc2c(CN3CCC(N4C(=O)CN(c5cncc(C(F)(F)F)c5)C4=O)CC3)ccnc2c1 [Example 10, 3-{1-[(7-methoxy-4-quinolinyl)methyl]-4-piperidinyl}-1-[5-(trifluoromethyl)-3-pyridinyl]-2,4-imidazolidinedione]
14 | – | 0.1 | O=C1CN(c2cncc(C(F)(F)F)c2)C(=O)N1[C@H]1CC[C@H](Oc2cnc3[nH]nc(OCCO)c3c2)CC1 [Example 36(7), 3-(trans-4-{[3-(2-hydroxyethoxy)-1H-pyrazolo[3,4-b]pyridin-5-yl]oxy}cyclohexyl)-1-[5-(trifluoromethyl)-3-pyridinyl]-2,4-imidazolidinedione]
15 | – | 10 | CC(C)(O)c1cc2c(OC34CCC(N5C(=O)CN(c6cncc(C(F)(F)F)c6)C5=O)(CC3)C4)ncnc2[nH]1 [Example 39, 3-(4-{[6-(2-hydroxy-2-propanyl)-7H-pyrrolo[2,3-d]pyrimidin-4-yl]oxy}bicyclo[2.2.1]hept-1-yl)-1-[5-(trifluoromethyl)-3-pyridinyl]-2,4-imidazolidinedione trifluoroacetate (1:1)]
16 | – | 20 | O=C1CN(c2cncc(C(F)(F)F)c2)C(=O)N1C12CCC(Oc3ncnc4[nH]cc(Cl)c34)(CC1)C2 [Example 42(2), 3-{4-[(5-chloro-7H-pyrrolo[2,3-d]pyrimidin-4-yl)oxy]bicyclo[2.2.1]hept-1-yl}-1-[5-(trifluoromethyl)-3-pyridinyl]-2,4-imidazolidinedione]
17 | – | 200 | N#Cc1cncc(N2CC(=O)N(C34CCC(Oc5ncnc6[nH]ccc56)(CC3)C4)C2=O)c1 [Example 42(7), 5-{2,4-dioxo-3-[4-(7H-pyrrolo[2,3-d]pyrimidin-4-yloxy)bicyclo[2.2.1]hept-1-yl]-1-imidazolidinyl}nicotinonitrile]
18 | – | 20 | N#Cc1cccc(N2CC(=O)N(C34CCC(Oc5ncnc6[nH]ccc56)(CC3)C4)C2=O)c1 [Example 42(9), 3-{2,4-dioxo-3-[4-(7H-pyrrolo[2,3-d]pyrimidin-4-yloxy)bicyclo[2.2.1]hept-1-yl]-1-imidazolidinyl}benzonitrile]
19 | – | 6 | O=C1CN(c2cncc(C(F)(F)F)c2)C(=O)N1C12CCC(Oc3ccnc4[nH]ncc34)(CC1)C2 [Example 43, 3-[4-(1H-pyrazolo[3,4-b]pyridin-4-yloxy)bicyclo[2.2.1]hept-1-yl]-1-[5-(trifluoromethyl)-3-pyridinyl]-2,4-imidazolidinedione]
